Values quoted from earlier work, collected in patent publication US20130078290A1, “Gastroretentive Dosage Forms Of GABA Analogs” (Rubicon Research Private Limited, priority 2010, published 2013).

Tests used:
[1] = for Elimination half-life: in vivo
[2] = in water and in acidic and basic aqueous solutions

| SMILES | Elimination half-life [1] | Solubility [2] | Oral bioavailability ([1]; dose in range of 300-400 mg) |
| --- | --- | --- | --- |
| CC(C)CC(CN)CC(=O)O (centres unmarked) [pregabalin, 5-methyl-3-aminomethyl-hexanoic acid] | about 6.3 hours | freely soluble | – |
| NCC1(CC(=O)O)CCCCC1 [gabapentin, 1-(Aminomethyl)cyclohexaneacetic acid] | 5 to 7 h | freely soluble | approximately 60% |
